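Values below derive from 48-hour exposures of cells grown in 96-well plates, with endpoints linearly interpolated between the two concentrations bracketing the appropriate inhibition level. The concentration for 50% growth inhibition is given as GI50.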 Calls of active or inactive are those of the source. Rule as the data show it: active = GI50 up to about 1.1 µM and inactive = higher.
Columns and labels:
Experiment in all cases: DTP human tumour cell line panel, 48 h
[1] = tested on: MCF7
[2] = tested on: DU-145
[3] = tested on: SK-MEL-5
[4] = tested on: SR
[5] = tested on: SK-OV-3
[6] = tested on: RXF 393
[7] = tested on: NCI/ADR-RES
[8] = tested on: ACHN
[9] = tested on: M14
[10] = tested on: SN12C
[11] = tested on: 786-0
[12] = tested on: UACC-62
[13] = tested on: K562
[14] = tested on: SW-620
[15] = tested on: CCRF-CEM
[16] = tested on: HOP-62
[17] = tested on: A549
[18] = tested on: SK-MEL-2
[19] = tested on: COLO 205
[20] = tested on: OVCAR-8
[21] = tested on: HCC 2998
[22] = tested on: SF-268
[23] = tested on: HCT-116
[24] = tested on: SK-MEL-28
[25] = tested on: MOLT-4
[26] = tested on: HT-29
[27] = tested on: CAKI-1
[28] = tested on: LOX IMVI
[29] = tested on: BT-549
[30] = tested on: MDA-N
[31] = tested on: RPMI-8226
[32] = tested on: OVCAR-3
[33] = tested on: T47D
[34] = tested on: UACC-257
[35] = tested on: NCI-H226
[36] = tested on: MDA-MB-435
[37] = tested on: HCT-15
[38] = tested on: SNB-75
[39] = tested on: MDA-MB-231
[40] = tested on: TK-10
[41] = tested on: OVCAR-5
[42] = tested on: SF-539
[43] = tested on: NCI-H23
[44] = tested on: HOP-92
[45] = tested on: Malme-3M
[46] = tested on: PC-3
[47] = tested on: IGROV-1
[48] = tested on: SF-295
[49] = tested on: U-251
[50] = tested on: KM12
[51] = tested on: EKVX
[52] = tested on: SNB-19
[53] = tested on: NCI-H522
[54] = tested on: A498
[55] = tested on: UO-31
[56] = tested on: Hs-578T
[57] = tested on: HL-60
[58] = tested on: NCI-H460

CCOC(=O)COc1cc(-c2ccccc2F)nc2cc3c(cc12)OCO3
GI50 [1]: > 100 µM (inactive) | GI50 [2]: > 100 µM (inactive) | GI50 [3]: 71.9 µM (inactive) | GI50 [4]: > 10 µM (inactive) | GI50 [5]: > 100 µM (inactive) | GI50 [6]: > 100 µM (inactive) | GI50 [7]: > 100 µM (inactive) | GI50 [8]: > 100 µM (inactive) | GI50 [9]: > 100 µM (inactive) | GI50 [10]: > 100 µM (inactive) | GI50 [11]: > 100 µM (inactive) | GI50 [12]: > 100 µM (inactive) | GI50 [13]: 38.1 µM (inactive) | GI50 [14]: > 100 µM (inactive) | GI50 [15]: 23.2 µM (inactive) | GI50 [16]: > 100 µM (inactive) | GI50 [17]: > 100 µM (inactive) | GI50 [18]: > 100 µM (inactive) | GI50 [19]: > 100 µM (inactive) | GI50 [20]: > 100 µM (inactive) | GI50 [21]: > 100 µM (inactive) | GI50 [22]: > 100 µM (inactive) | GI50 [23]: 72.3 µM (inactive) | GI50 [24]: > 100 µM (inactive) | GI50 [25]: 27.8 µM (inactive) | GI50 [26]: > 100 µM (inactive) | GI50 [27]: > 100 µM (inactive) | GI50 [28]: 53.7 µM (inactive) | GI50 [29]: > 100 µM (inactive) | GI50 [30]: > 100 µM (inactive) | GI50 [31]: 42 µM (inactive) | GI50 [32]: > 10 µM (inactive) | GI50 [33]: 79.8 µM (inactive) | GI50 [34]: > 100 µM (inactive) | GI50 [35]: > 100 µM (inactive) | GI50 [36]: > 100 µM (inactive) | GI50 [37]: 39.9 µM | GI50 [38]: 59.4 µM (inactive) | GI50 [39]: > 100 µM (inactive) | GI50 [40]: > 100 µM (inactive) | GI50 [41]: > 100 µM (inactive) | GI50 [42]: > 100 µM (inactive) | GI50 [43]: > 100 µM (inactive) | GI50 [44]: 19.7 µM (inactive) | GI50 [45]: > 100 µM (inactive) | GI50 [46]: > 100 µM (inactive) | GI50 [47]: 90.8 µM (inactive) | GI50 [48]: > 100 µM (inactive) | GI50 [49]: 93.5 µM (inactive) | GI50 [50]: > 100 µM (inactive) | GI50 [51]: 85.5 µM (inactive)

CCOc1ccc(NC(=O)/C=C/c2ccco2)cc1
GI50 [1]: 75.2 µM (inactive) | GI50 [2]: 47 µM (inactive) | GI50 [52]: > 100 µM (inactive) | GI50 [3]: 44.3 µM (inactive) | GI50 [4]: 28.8 µM (inactive) | GI50 [5]: 32.4 µM (inactive) | GI50 [6]: 67.1 µM (inactive) | GI50 [7]: 30.8 µM (inactive) | GI50 [8]: > 100 µM (inactive) | GI50 [9]: 58.2 µM (inactive) | GI50 [10]: 79.6 µM (inactive) | GI50 [11]: > 100 µM (inactive) | GI50 [12]: > 100 µM (inactive) | GI50 [13]: 24.2 µM (inactive) | GI50 [14]: > 100 µM (inactive) | GI50 [53]: > 100 µM (inactive) | GI50 [15]: 34.8 µM (inactive) | GI50 [17]: > 100 µM (inactive) | GI50 [18]: > 100 µM (inactive) | GI50 [19]: 36.1 µM (inactive) | GI50 [20]: 85.9 µM (inactive) | GI50 [21]: 35.2 µM (inactive) | GI50 [22]: 78.7 µM (inactive) | GI50 [23]: 41.2 µM (inactive) | GI50 [24]: > 100 µM (inactive) | GI50 [25]: 40 µM (inactive) | GI50 [26]: 26.4 µM (inactive) | GI50 [54]: 42.7 µM (inactive) | GI50 [27]: > 100 µM (inactive) | GI50 [55]: 87.1 µM (inactive) | GI50 [28]: 54.3 µM (inactive) | GI50 [29]: 38 µM (inactive) | GI50 [30]: 12.3 µM (inactive) | GI50 [31]: 32.3 µM (inactive) | GI50 [32]: > 10 µM (inactive) | GI50 [34]: 72.9 µM (inactive) | GI50 [35]: 86.9 µM (inactive) | GI50 [56]: 65 µM (inactive) | GI50 [57]: 11.9 µM (inactive) | GI50 [36]: 5.98 µM (inactive) | GI50 [37]: 41.2 µM | GI50 [38]: 84.3 µM (inactive) | GI50 [39]: > 100 µM (inactive) | GI50 [58]: 43.8 µM (inactive) | GI50 [40]: > 100 µM (inactive) | GI50 [41]: > 100 µM (inactive) | GI50 [42]: 26 µM (inactive) | GI50 [43]: > 100 µM (inactive) | GI50 [45]: > 100 µM (inactive) | GI50 [46]: 35.6 µM (inactive) | GI50 [47]: > 100 µM (inactive) | GI50 [48]: 61.8 µM (inactive) | GI50 [49]: 33.8 µM (inactive) | GI50 [50]: 30.5 µM (inactive) | GI50 [51]: 87.3 µM (inactive)

CCOC(=O)/C(=C\c1cn(C(C)=O)c2ccccc12)P(C)(=O)OCC (stereo unspecified)
GI50 [1]: 32.8 µM (inactive) | GI50 [2]: 25.9 µM (inactive) | GI50 [52]: 49.9 µM (inactive) | GI50 [3]: 47.5 µM (inactive) | GI50 [4]: > 100 µM (inactive) | GI50 [5]: 27.1 µM (inactive) | GI50 [7]: 20.4 µM (inactive) | GI50 [8]: 26 µM (inactive) | GI50 [9]: 16.7 µM (inactive) | GI50 [10]: 26.8 µM (inactive) | GI50 [11]: 39.5 µM (inactive) | GI50 [12]: 60 µM (inactive) | GI50 [13]: > 100 µM (inactive) | GI50 [14]: 39.2 µM (inactive) | GI50 [53]: 19.2 µM (inactive) | GI50 [15]: 57.3 µM (inactive) | GI50 [16]: 33.2 µM (inactive) | GI50 [17]: 37.1 µM (inactive) | GI50 [18]: 39.8 µM (inactive) | GI50 [19]: 54.5 µM (inactive) | GI50 [20]: 33.4 µM (inactive) | GI50 [21]: 27.9 µM (inactive) | GI50 [22]: 21.1 µM (inactive) | GI50 [23]: 26.2 µM (inactive) | GI50 [24]: 64.7 µM (inactive) | GI50 [25]: > 100 µM (inactive) | GI50 [26]: 39.9 µM (inactive) | GI50 [54]: 28.8 µM (inactive) | GI50 [27]: 46.2 µM (inactive) | GI50 [55]: 32.3 µM (inactive) | GI50 [29]: 22.3 µM (inactive) | GI50 [30]: 24.8 µM (inactive) | GI50 [31]: > 100 µM (inactive) | GI50 [32]: 28.5 µM (inactive) | GI50 [33]: 37.2 µM (inactive) | GI50 [57]: > 100 µM (inactive) | GI50 [36]: 31.8 µM (inactive) | GI50 [37]: 28.8 µM | GI50 [38]: 11 µM (inactive) | GI50 [39]: 27.4 µM (inactive) | GI50 [41]: 68.7 µM (inactive) | GI50 [42]: 19.8 µM (inactive) | GI50 [44]: 17.2 µM (inactive) | GI50 [45]: 17.3 µM (inactive) | GI50 [46]: 52.5 µM (inactive) | GI50 [47]: 16.8 µM (inactive) | GI50 [48]: 41.8 µM (inactive) | GI50 [49]: 40.1 µM (inactive) | GI50 [50]: 33.1 µM (inactive) | GI50 [51]: 33.3 µM (inactive)
